Reference: ChEMBL document CHEMBL4316588, “Design, Synthesis, and Biological Evaluation of Novel DNA Gyrase-Inhibiting Spiropyrimidinetriones as Potent Antibiotics for Treatment of Infections Caused by Multidrug-Resistant Gram-Positive Bacteria” (J Med Chem, 2019)
In brackets after ≈: the same amount, converted by molar mass. Activity calls are given as the source filed them. The calls are words filed in the database; no cut-off is given here.

Tests used:
Format in all cases: functional
[1] = test system: Staphylococcus epidermidis; assay: Antibacterial activity against methicillin-sensitive Staphylococcus epidermidis after 18 to 20 hrs by CLSI-protocol based broth microdilution method
[2] = test system: Staphylococcus epidermidis; assay: Antibacterial activity against methicillin-resistant Staphylococcus epidermidis after 18 to 20 hrs by CLSI-protocol based broth microdilution method
Streptococcus pneumoniae = assay: Antibacterial activity against penicillin-resistant Streptococcus pneumoniae after 18 to 20 hrs by CLSI-protocol based broth microdilution method
Staphylococcus aureus [3] = assay: Antibacterial activity against methicillin-sensitive Staphylococcus aureus after 18 to 20 hrs by CLSI-protocol based broth microdilution method
Staphylococcus aureus [4] = assay: Antibacterial activity against methicillin-resistant Staphylococcus aureus after 18 to 20 hrs by CLSI-protocol based broth microdilution method
Streptococcus pyogenes = assay: Antibacterial activity against Streptococcus pyogenes after 18 to 20 hrs by CLSI-protocol based broth microdilution method
[5] = Staphylococcus aureus, read-out: MIC
[6] = Streptococcus pyogenes, read-out: MIC

C[C@@H]1CN2c3c(cc4c(N5C(=O)S[C@@H]6CCCC[C@@H]65)noc4c3F)CC3(C(=O)NC(=O)NC3=O)[C@H]2[C@H](C)O1
MIC [1]: 0.25 to 0.5 µg/mL (≈ 0.46 to 0.92 µM)
MIC [2]: 0.125 to 0.5 µg/mL (≈ 0.23 to 0.92 µM)
MIC (Streptococcus pneumoniae): < 0.03 µg/mL
MIC (Staphylococcus aureus [3]; [5]): 0.5 to 1 µg/mL (≈ 0.92 to 1.84 µM)
MIC (Staphylococcus aureus [4]): 0.5 to 2 µg/mL (≈ 0.92 to 3.68 µM)

C[C@@H]1CN2c3c(cc4c(N5C(=O)OC[C@@H]5C)noc4c3C#N)CC3(C(=O)NC(=O)NC3=O)[C@H]2[C@H](C)O1
MIC [1]: 0.5 to 2 µg/mL (≈ 1.01 to 4.04 µM)
MIC [2]: 1 to 2 µg/mL (≈ 2.02 to 4.04 µM)
MIC (Streptococcus pyogenes; [6]): 4 to 8 µg/mL (≈ 8.09 to 16.2 µM)
MIC (Streptococcus pneumoniae): 2 to 8 µg/mL (≈ 4.04 to 16.2 µM)
MIC (Staphylococcus aureus [3]; [5]): 4 to 8 µg/mL (≈ 8.09 to 16.2 µM)
MIC (Staphylococcus aureus [4]): 1 to 32 µg/mL (≈ 2.02 to 64.7 µM)

C[C@@H]1CN2c3c(cc4c(N5C[C@H](CS(C)(=O)=O)SC5=O)noc4c3F)CC3(C(=O)NC(=O)NC3=O)[C@H]2[C@H](C)O1
MIC [1]: 0.25 to 1 µg/mL (≈ 0.43 to 1.72 µM)
MIC [2]: 0.25 to 1 µg/mL (≈ 0.43 to 1.72 µM)
MIC (Streptococcus pyogenes; [6]): 0.5 to 1 µg/mL (≈ 0.86 to 1.72 µM)
MIC (Streptococcus pneumoniae): 0.5 to 4 µg/mL (≈ 0.86 to 6.88 µM)
MIC (Staphylococcus aureus [3]; [5]): 2 to 4 µg/mL (≈ 3.44 to 6.88 µM)
MIC (Staphylococcus aureus [4]): 1 to 8 µg/mL (≈ 1.72 to 13.8 µM)

C[C@@H]1CN2c3c(cc4c(N5CC6(CCCC6)OC5=O)noc4c3F)CC3(C(=O)NC(=O)NC3=O)[C@H]2[C@H](C)O1
MIC [1]: 0.06 to 0.25 µg/mL (≈ 0.114 to 0.474 µM)
MIC [2]: 0.03 to 0.25 µg/mL (≈ 0.0569 to 0.474 µM)
MIC (Streptococcus pyogenes; [6]): 0.25 to 0.5 µg/mL (≈ 0.474 to 0.948 µM)
MIC (Streptococcus pneumoniae): 0.25 to 1 µg/mL (≈ 0.474 to 1.9 µM)
MIC (Staphylococcus aureus [3]; [5]): 0.125 to 0.25 µg/mL (≈ 0.237 to 0.474 µM)
MIC (Staphylococcus aureus [4]): 0.06 to 1 µg/mL (≈ 0.114 to 1.9 µM)

C[C@@H]1CN2c3c(cc4c(N5C(=O)OCC56CC6)noc4c3F)CC3(C(=O)NC(=O)NC3=O)[C@H]2[C@H](C)O1 (racemic)
MIC [1]: 1 to 2 µg/mL (≈ 2 to 4 µM)
MIC [2]: 0.5 to 2 µg/mL (≈ 1 to 4 µM)
MIC (Streptococcus pyogenes; [6]): 1 to 2 µg/mL (≈ 2 to 4 µM)
MIC (Streptococcus pneumoniae): 2 µg/mL (≈ 4 µM)
MIC (Staphylococcus aureus [3]; [5]): 1 µg/mL (≈ 2 µM)
MIC (Staphylococcus aureus [4]): 1 to 4 µg/mL (≈ 2 to 8.01 µM)

C[C@@H]1CN2c3c(cc4c(N5CCOC5=S)noc4c3F)CC3(C(=O)NC(=O)NC3=O)[C@H]2[C@H](C)O1 (racemic)
MIC [1]: 0.5 to 2 µg/mL (≈ 1.02 to 4.09 µM)
MIC [2]: 1 µg/mL (≈ 2.04 µM)
MIC (Streptococcus pyogenes; [6]): 2 µg/mL (≈ 4.09 µM)
MIC (Streptococcus pneumoniae): 1 to 2 µg/mL (≈ 2.04 to 4.09 µM)
MIC (Staphylococcus aureus [3]; [5]): 0.5 to 1 µg/mL (≈ 1.02 to 2.04 µM)
MIC (Staphylococcus aureus [4]): 1 to 2 µg/mL (≈ 2.04 to 4.09 µM)

CC[C@@H]1CN(c2noc3c(F)c4c(cc23)CC2(C(=O)NC(=O)NC2=O)[C@H]2[C@H](C)O[C@H](C)CN42)C(=O)S1
MIC [1]: < 0.03 µg/mL
MIC [2]: < 0.03 µg/mL
MIC (Streptococcus pyogenes; [6]): < 0.03 µg/mL

C[C@@H]1CN2c3c(cc4c(N5C[C@H](c6ccccc6)SC5=O)noc4c3F)CC3(C(=O)NC(=O)NC3=O)[C@H]2[C@H](C)O1
MIC [1]: 0.5 to 2 µg/mL (≈ 0.884 to 3.54 µM)
MIC [2]: 0.125 to 0.5 µg/mL (≈ 0.221 to 0.884 µM)
MIC (Streptococcus pyogenes; [6]): 4 µg/mL (≈ 7.07 µM)
MIC (Streptococcus pneumoniae): 1 to 2 µg/mL (≈ 1.77 to 3.54 µM)
MIC (Staphylococcus aureus [3]; [5]): 0.5 to 1 µg/mL (≈ 0.884 to 1.77 µM)
MIC (Staphylococcus aureus [4]): 0.125 to 2 µg/mL (≈ 0.221 to 3.54 µM)

C[C@@H]1CN2c3c(cc4c(N5C(=O)OC[C@@H]5C)noc4c3F)CC3(C(=O)N(C)C(=O)N(C)C3=O)[C@H]2[C@H](C)O1
MIC [1]: inactive
MIC [2]: inactive
MIC (Streptococcus pyogenes): inactive
MIC (Streptococcus pneumoniae): inactive
MIC (Staphylococcus aureus [3]): inactive
MIC (Staphylococcus aureus [4]): inactive

C[C@@H]1CN2c3c(cc4c(N5C(=O)OC[C@@H]5C)noc4c3F)CC3(C(=O)NC(=S)NC3=O)[C@H]2[C@H](C)O1
MIC [1]: inactive
MIC [2]: inactive
MIC (Streptococcus pyogenes): inactive
MIC (Streptococcus pneumoniae): inactive
MIC (Staphylococcus aureus [3]): inactive
MIC (Staphylococcus aureus [4]): inactive

C[C@@H]1CN2c3c(cc4c(N5CCCOC5=O)noc4c3F)CC3(C(=O)NC(=O)NC3=O)[C@H]2[C@H](C)O1 (racemic)
MIC [1]: 4 µg/mL (≈ 8.21 µM)
MIC [2]: 1 to 8 µg/mL (≈ 2.05 to 16.4 µM)
MIC (Streptococcus pyogenes; [6]): 4 µg/mL (≈ 8.21 µM)
MIC (Streptococcus pneumoniae): 4 to 8 µg/mL (≈ 8.21 to 16.4 µM)
MIC (Staphylococcus aureus [3]; [5]): 4 to 8 µg/mL (≈ 8.21 to 16.4 µM)
MIC (Staphylococcus aureus [4]): 1 to 64 µg/mL (≈ 2.05 to 131 µM)

C[C@@H]1CN2c3c(cc4c(N5CCSCC5)ncnc4c3F)CC3(C(=O)NC(=O)NC3=O)[C@H]2[C@H](C)O1 (racemic)
MIC [1]: inactive
MIC [2]: inactive
MIC (Streptococcus pyogenes): inactive
MIC (Streptococcus pneumoniae): inactive
MIC (Staphylococcus aureus [3]): inactive
MIC (Staphylococcus aureus [4]): inactive

C[C@@H]1CN2c3c(cc4c(N5CCOCC5=O)ncnc4c3F)CC3(C(=O)NC(=O)NC3=O)[C@H]2[C@H](C)O1 (racemic)
MIC [1]: inactive
MIC [2]: inactive
MIC (Streptococcus pyogenes): inactive
MIC (Streptococcus pneumoniae): inactive
MIC (Staphylococcus aureus [3]): inactive
MIC (Staphylococcus aureus [4]): inactive

C[C@@H]1CN2c3c(cc4c(N5C(=O)SC[C@@H]5Cc5ccccc5)noc4c3F)CC3(C(=O)NC(=O)NC3=O)[C@H]2[C@H](C)O1
MIC [1]: 1 to 4 µg/mL (≈ 1.73 to 6.9 µM)
MIC [2]: 1 to 4 µg/mL (≈ 1.73 to 6.9 µM)
MIC (Streptococcus pyogenes; [6]): 4 to 8 µg/mL (≈ 6.9 to 13.8 µM)
MIC (Streptococcus pneumoniae): 4 to 8 µg/mL (≈ 6.9 to 13.8 µM)
MIC (Staphylococcus aureus [3]; [5]): 2 to 8 µg/mL (≈ 3.45 to 13.8 µM)
MIC (Staphylococcus aureus [4]): 8 to 16 µg/mL (≈ 13.8 to 27.6 µM)

C[C@@H]1CN2c3c(cc4c(N5C[C@H](CN=[N+]=[N-])SC5=O)noc4c3F)CC3(C(=O)NC(=O)NC3=O)[C@H]2[C@H](C)O1
MIC [1]: 0.03 to 0.25 µg/mL (≈ 0.0551 to 0.459 µM)
MIC [2]: 0.03 to 0.125 µg/mL (≈ 0.0551 to 0.23 µM)
MIC (Streptococcus pyogenes; [6]): 0.125 to 1 µg/mL (≈ 0.23 to 1.84 µM)
MIC (Streptococcus pneumoniae): 0.125 µg/mL (≈ 0.23 µM)
MIC (Staphylococcus aureus [3]; [5]): 0.06 to 0.25 µg/mL (≈ 0.11 to 0.459 µM)
MIC (Staphylococcus aureus [4]): 0.25 to 0.5 µg/mL (≈ 0.459 to 0.918 µM)

C[C@@H]1CN2c3c(cc4c(N5CC6(CC6)OC5=O)noc4c3F)CC3(C(=O)NC(=O)NC3=O)[C@H]2[C@H](C)O1 (racemic)
MIC [1]: ≤ 0.03 µg/mL
MIC [2]: ≤ 0.03 µg/mL
MIC (Streptococcus pyogenes; [6]): ≤ 0.03 µg/mL
MIC (Streptococcus pneumoniae): ≤ 0.03 µg/mL
MIC (Staphylococcus aureus [3]): <0.03 µg/mL
MIC (Staphylococcus aureus [4]): 0.03 to 0.125 µg/mL (≈ 0.0601 to 0.25 µM)

CC(=O)NC[C@H]1CN(c2noc3c(F)c4c(cc23)CC2(C(=O)NC(=O)NC2=O)[C@H]2[C@H](C)O[C@H](C)CN42)C(=O)S1
MIC [1]: 2 to 8 µg/mL (≈ 3.57 to 14.3 µM)
MIC [2]: 0.5 to 2 µg/mL (≈ 0.892 to 3.57 µM)
MIC (Streptococcus pyogenes; [6]): 16 to 32 µg/mL (≈ 28.5 to 57.1 µM)
MIC (Streptococcus pneumoniae): 2 µg/mL (≈ 3.57 µM)
MIC (Staphylococcus aureus [3]; [5]): 16 µg/mL (≈ 28.5 µM)
MIC (Staphylococcus aureus [4]): 16 to 64 µg/mL (≈ 28.5 to 114 µM)

C[C@@H]1CN2c3c(cc4c(N5C(=O)S[C@H]6CCC[C@H]65)noc4c3F)CC3(C(=O)NC(=O)NC3=O)[C@H]2[C@H](C)O1
MIC [1]: 0.5 µg/mL (≈ 0.944 µM)
MIC [2]: 0.5 µg/mL (≈ 0.944 µM)
MIC (Streptococcus pyogenes; [6]): 0.125 µg/mL (≈ 0.236 µM)
MIC (Streptococcus pneumoniae): 0.25 to 0.5 µg/mL (≈ 0.472 to 0.944 µM)
MIC (Staphylococcus aureus [3]; [5]): 0.25 to 0.5 µg/mL (≈ 0.472 to 0.944 µM)
MIC (Staphylococcus aureus [4]): 0.25 to 1 µg/mL (≈ 0.472 to 1.89 µM)
